These results are taken from patent US4778789A, “Piperazinecarboxamides having a phenoxyalkyl or thiophenoxyalkyl side chain” (priority 1985, dated 1988).

Molecules are shown by their SMILES. Structures can show the parent of a compound that is named as a salt.

This assay has as its system isolation induced aggressive behaviour (male NMRI mice). Put plainly: Isolation induced aggressive behaviour test. Type of assay: in vivo. The conditions noted are these: Mus musculus, sc, 0.5 hour after drug administration, read-out: ED50 (dose inhibiting aggressive behaviour among 50 percent of the pairs). From the text: This type of aggression is interesting because it is known that this kind of emotional behaviour might be located in limbic structures in the brain (MacLean, P. D., Psychosom. Med. 11, 338 (1949)).
Every week male NMRI mice, weighing 20-22 g, were isolated in Makrolon cages for three weeks with diet and water ad libitum. A piece of cardboard was placed between the cages to prevent visual contact.
To test aggressiveness the mice were paired in a neutral area, a beaker (14 cm high and diameter 14 cm). A pair is considered aggressive if both the animals show clear signs of fighting within 5 minutes. This fighting is characterized by biting and vocalization. A soon as fighting is seen, the mice are separated and brought to their home cage (every second mouse is marked). […] Animals showing no aggression are discarded.
The test substance is administered s.c. (0.2-0.4 ml/20 g). The mice are paired 0.5 hour after the injection for trials of 5 minutes' duration.
The ED50 -value (mg/kg) reported is the dose inhibiting aggressive behaviour among 50 percent of the pairs 0.5 hour after drug administration.

In the case of `CCNC(=O)N1CCN(CCCOc2ccc(F)cc2)CC1` [1:3, 4-/3-(p-fluorophenoxy)proyl/-N-ethyl-1-piperazinecarboxamide hydrochloride], the ED50 stood at 5 mg/kg.
Regarding `CSc1ccc2c(c1)N(CCC1CCCCN1C)c1ccccc1S2` (centres unmarked) [Thioridazine], the ED50 was 5 mg/kg.

By ED50 is commonly meant the midpoint of the dose-response relation.
